Values of other authors, collected in patent publication US7897820B2, “Process for preparing erianin” (Zhe Jiang Cell Biomedical Research Co., Ltd., priority 2005, dated 2011).

Key:
tumor cell strain K256 = conditions: among dihydrobibenzyls and phenanthrenes in Dendrobium chrysotoxum
microtubulin = conditions: target is the microtubulin in the cell
[1] = compared with 5FU
[2] = system: human leukemia HL-60 cells

COc1ccc(CCc2cc(OC)c(OC)c(OC)c2)cc1O [Erianin, 2-methoxyl-5-[2-(3,4,5-trimethoxyphenyl)]ethyl phenol]
inhibitory effect on the growth of tumor cell strain K256 (tumor cell strain K256): most active | effect on polymerizing of microtubulin (microtubulin): inhibit the polymerizing of microtubulin | side effect [1]: far lower then 5FU | tumor inhibitory rate (liver cancer of mouse): 50.82% | inhibition of growth of human leukemia HL-60 cells [2]: significantly inhibited the growth
